Columns and labels:
[1] = system: elastase-induced abdominal aortic aneurysms; test: Elastase-induced rat model of abdominal aortic aneurysm; type: in vivo; conditions: 15 mg/kg/day; for inhibition of aortic dilatation induced by elastase perfusion: vs saline, FIG. 77
Excerpt: The following example is provided to assist in a further understanding of the present invention. The particular materials and conditions employed are intended to be further illustrative of the invention and are not limiting upon the reasonable scope thereof Male Wistar rats (350-400 g) were subjected to perfusion of an isolated segment of the infrarenal abdominal aorta with 50 units of porcine pancreatic elastase, using the method described by Anidjar et al. (Anidjar, S. Salzmann, J L, Generic, D, Lagneau, P, Camilleri, J P, and Michel, J B, “Elastase induced experimental aneurysms in rats,” Circulation 82:973-981 (1990); Halpern et al. (Halpern, V J. Liao, Nackman, G B, Gandhi, R H, Irizarry, E, Scholes, J V, Ramey, W G, and Tilson, M D, “The elastase infusion model of experimental aortic aneurysms: Synchrony of induction of endogenous protinases with matrix destruction and inflammatory cell response, “J. Vasc. Surg. […] Surg 23:336-346(1996)). This method is an accepted model for experimental induction of abdominal aortic aneurysms. The animals (n=6 rats in each group) were then treated with twice-daily subcutaneous injections of either saline vehicle (control), or various doses of doxycycline (Dox) or one of four different, non-antibiotic, chemically-modified tetracyclines (CMTs; CollaGenex, Inc., Newtown, Pa.). Aortic diameter (AD) was measured with microcalipers before and after elastase perfusion, and just prior to sacrifice on day 7. Abdominal aortic aneurysms were defined as an increase in final AD to at least twice that measured before perfusion (≥100% increase). Aortic tissues from two animals in each group were perfusion-fixed with 10% neutral buffered formalin, embedded in paraffin, and stained with Verhoeff-van Geisen (VVG) for elastin. Tissues from the remaining animals were extracted, normalized to total protein, and analyzed by gelatin substrate zymography as described (Thompson et al. 1995; Halpern et al. 1994; Petrinec 1996).

[2] = Liquid formulations of water insoluble rapamycins: concentration (HPLC) and visual observation; type: physicochemical
Excerpt: In accordance with exemplary embodiments of the present invention, a series of liquid formulations were developed for the local or regional delivery of water insoluble compounds such as sirolimus and its analogs, including CCI-779, ABT-578 and everolimus, through weeping balloons and catheter injection needles. […] These liquid formulations increase the apparent solubility of the pharmacologically active but water insoluble compounds by two to four orders. of magnitude as compared to the solubility limits of the compounds in water. These liquid formulations rely on the use of a very small amount of organic solvents such as Ethanol (typically less than two percent) and a larger amount of safe-amphiphilic (of or relating to a molecule having-a polar; water soluble group attached to a non-polar, water insoluble […]) excipients such as polyethylene glycol (PEG 200, PEG 400) and vitamin E TPGS to enhance the solubility of the compounds. These liquid formulations of highly. water insoluble compounds are stable and readily flowable at room temperature. Certain excipients, such as Vitamin E TPGS and BHT may be utilized to enhance the storage stability of sirolimus compounds through their anti-oxidation properties. […]

[3] = system: human coronary artery smooth muscle cells; test: Anti-proliferative activity in non-synchronized cultured human coronary artery smooth muscle cells stimulated with two percent fetal bovine serum; type: cell-based; conditions: for effect of addition on the anti-proliferative rapamycin dose response curve: mycophenolic acid zero to one thousand nanomolar (FIG. 52), cladribine zero to nine hundred nanomolar (FIG. 57)
Excerpt: The multiple curves represent various concentrations of mycophenolic acid ranging from zero to one thousand nanomolar concentrations.
FIG. 58 illustrates, in graphical format, the anti-proliferative activity of cladribine in non-synchronized cultured human coronary artery smooth muscle cells stimulated with two percent fetal bovine serum.
The multiple curves represent various concentrations of cladribine ranging from zero to nine hundred nanomolar concentrations.

[4] = In vivo release kinetics from stent coatings in porcine pharmacokinetics studies
Excerpt: The topcoat is two hundred micro grams.
The basecoat is applied to Bx Velocity® stents and implanted into Yorkshire pigs.
Another critical parameter for the performance of the thrombus resistance of a device coated with cilostazol is the duration of the drug release from the coating. This is of particular significance in the two weeks after device implantation. […] The purpose of the porcine PK study is to assess the local pharmacokinetics of a drug eluting stent at a given implantation time. Normally three stents are implanted in three different coronary arteries in a pig for a given time point and then retrieved for total drug recovery analysis. The stents are retrieved at predetermined time points; namely, 1, 3 and 8 days. The stents are extracted and the total amount of drug remaining on the stents is determined by analysis utilizing HPLC (high performance liquid chromatography) for total drug amount. The difference between the original amount of drug on the stent and the amount of drug retrieved at a given time represents the amount of drug released in that period. The continuous release of drug into surrounding arterial tissue is what prevents the neointimal growth and restenosis in the coronary artery. A normal plot represents the percentage of total drug released (%, y-axis) vs. time of implantation (day, x-axis). […] In this exemplary configuration, the stent 8600 is coated with two layers. The first layer 8602 comprises a combination of sirolimus, cilostazol and a copolymer matrix of EVA/BMA. The second layer or diffusion overcoat 8604 comprises only BMA. More specifically, in this embodiment, the first layer 8602 comprises a combination of sirolimus and cilastazol that is forty-five (45) percent by weight of the total weight of the first layer 8602 and an EVA/BMA copolymer matrix that is fifty-five (55) percent by weight of the total weight of the first layer 8602. The diffusion overcoat comprises one hundred (100 μg) micrograms of BMA.
Pigs are an established animal species for intravascular stent studies and accepted for such studies by the appropriate regulatory agencies. This in vivo study utilized male pigs of the species Sus Scrofa and strain Yoorkshire pigs. S.M.A.R.T.™ stents, available from Cordis Corporation, were placed into the iliac and femoral arteries, PALMAZ® GENESIS™ stents, available from Cordis Corporation, were placed in the renal arteries and CYPHER™ stents, available from Cordis Corporation, were placed in the coronary arteries.

[5] = system: human coronary artery smooth muscle cells; test: Anti-proliferative activity in synchronized cultured human coronary artery smooth muscle cells stimulated with two percent fetal bovine serum; type: cell-based; conditions: topotecan to 300 nanomolar (FIG. 64), etoposide to eight hundred nanomolar (FIG. 65), Panzem to 100 micromolar (FIG. 68)
Excerpt: (§1) The multiple curves represent various concentrations of topotecan ranging from zero to three hundred nanomolar concentrations.
(§2) The multiple curves represent various concentrations of etoposide ranging from zero to eight hundred nanomolar concentrations.
The multiple curves represent various concentrations of Panzem® ranging from zero to 100 micromolar concentrations.

[6] = Cell viability assay (cytotoxicity); type: cell-based
Excerpt: as §1, §2

[7] = system: human coronary artery smooth muscle cell; test: In vitro cell culture study of human coronary artery smooth muscle cell proliferation (trichostatin A); type: cell-based
Excerpt: FIG. 51 is a graph of the inhibition of coronary artery smooth muscle cells by trichostatin A in a cell culture study.

tumor cell lines = conditions: cited from earlier work

**Q.** With “4-dedimethylamino-12a-deoxytetracycline [CMT-7]” as the compound, how does the “relative efficacy in suppressing aneurysmal dilatation compared to Dox at the same dose” value (“relative efficacy” for short) [1] read?
**A.** 92%

**Q.** What about the “inhibition of aortic dilatation induced by elastase perfusion” value (from here on “inhibition of aortic dilatation induced”) [1] of the same compound?
**A.** statistically significant

**Q.** Which “concentration in the final solution (HPLC assay)” value ([2]; ethanol (less than two percent), Vitamin E TPGS and water) does the source give for `CO[C@H]1C[C@@H]2CC[C@@H](C)[C@@](O)(O2)C(=O)C(=O)N2CCCC[C@H]2C(=O)O[C@H]([C@H](C)C[C@@H]2CC[C@@H](OC(=O)C(C)(CO)CO)[C@H](OC)C2)CC(=O)[C@H](C)/C=C(\C)[C@@H](O)[C@@H](OC)C(=O)[C@H](C)C[C@H](C)/C=C/C=C/C=C/1C` [CCl-779] here?
**A.** 15000 µg/mL

**Q.** Which “relative efficacy” value [1] does the source give for `NC(=O)C1=C(O)C[C@@H]2C[C@@H]3Cc4cccc(O)c4C(=O)C3=C(O)[C@]2(O)C1=O` [CMT-3, 6-demethyl-6-deoxy-4-dedimethylaminotetracycline] here?
**A.** 92%

**Q.** And the “inhibition of aortic dilatation induced” value [1]?
**A.** statistically significant

**Q.** With `CC1(O)c2c(Cl)ccc(O)c2C(=O)C2=C(O)C3(O)C(=O)C(C(N)=O)=C(O)CC3CC21` (centres unmarked) [CMT-4, 4-dedimethylamino-7-chlorotetra-cycline] as the compound, how does the “relative efficacy” value [1] read?
**A.** 75%

**Q.** What about the “inhibition of aortic dilatation induced” value [1] of the same compound?
**A.** did not reach statistical significance

**Q.** What does the source list for `C[C@H]1c2cccc(O)c2C(O)=C2C(=O)[C@]3(O)C(O)=C(C(N)=O)C(=O)C[C@@H]3[C@@H](O)[C@@H]21` [CMT-8, 6-α-deoxy-5-hydroxy-4-dedimethylaminotetracycline]?
**A.** relative efficacy in suppressing aneurysmal dilatation compared to Dox at the same dose [1]: 105%; inhibition of aortic dilatation induced by elastase perfusion [1]: statistically significant

**Q.** With `Nc1nc(Cl)nc2c1ncn2[C@H]1C[C@H](O)[C@@H](CO)O1` [Cladribine, 2-chlorodeoxyadenosine] as the compound, how does the “inhibition of human coronary artery smooth muscle cell proliferation” value ([3]; FIG. 58) read?
**A.** completely inhibits

**Q.** And the “effect of addition on the anti-proliferative rapamycin dose response curve” value (“effect of addition” below) [3]?
**A.** potentiate the anti-proliferative activity of rapamycin

**Q.** What about the “in vivo elution from the polymeric stent coating, comparison” value ([4]; EVA/BMA basecoat with rapamycin and cladribine, BMA topcoat, FIGS. 62, 63) of the same compound?
**A.** elutes more rapidly than rapamycin

**Q.** Which “effect of addition” value [5] does the source give for `COc1cc([C@@H]2c3cc4c(cc3[C@@H](O[C@@H]3O[C@@H]5CO[C@@H](C)O[C@H]5[C@H](O)[C@H]3O)[C@H]3COC(=O)[C@H]23)OCO4)cc(OC)c1O` [etoposide] here?
**A.** increases the percent inhibition of rapamycin alone

**Q.** What about the “cytotoxicity in cell viability assay” value ([6]; at concentrations up to ten micromolar) of the same compound?
**A.** non-cytotoxic

**Q.** For `COc1c(C)c2c(c(O)c1C/C=C(\C)CCC(=O)O)C(=O)OC2` [mycophenolic acid], which “effect of addition” value [3] is on record?
**A.** potentiates the anti-proliferative activity of rapamycin

**Q.** What about the “in vivo release from the basecoat, comparison” value ([4]; EVA/BMA basecoat with rapamycin and mycophenolic acid, BMA topcoat, FIGS. 53, 54) of the same compound?
**A.** elutes more completely over a shorter duration than the rapamycin

**Q.** With `CO[C@H]1C[C@@H]2CC[C@@H](C)[C@@](O)(O2)C(=O)C(=O)N2CCCC[C@H]2C(=O)O[C@H]([C@H](C)C[C@@H]2CC[C@@H](O)[C@H](OC)C2)CC(=O)[C@H](C)/C=C(\C)[C@@H](O)[C@@H](OC)C(=O)[C@H](C)C[C@H](C)/C=C/C=C/C=C/1C` [rapamycin] as the compound, how does the “in vivo release rate, comparison” value ([4]; PVDF basecoat with rapamycin and mycophenolic acid, PVDF topcoat, FIG. 56) read?
**A.** slower release rate than that of mycophenolic acid

**Q.** And the “peak elution release at three days” value ([4]; PVDF/HFP (60/40) and rapamycin basecoat with 167 microgram PVDF/HFP topcoat, curve 4902)?
**A.** greater than seventy-five

**Q.** And the “peak elution release at three days” value ([4]; PVDF/HFP (60/40) and rapamycin basecoat with 490 microgram BMA topcoat, curve 4912)?
**A.** less than fifty

**Q.** And the “drug remaining in the drug coating” value ([4]; after eight (8) days of implantation, single layer sirolimus/cilostazol EVA/BMA coating with 100 μg BMA overcoat (FIG. 86), FIG. 84)?
**A.** ~80%

**Q.** And the “concentration relative to the solubility of sirolimus in water” value ([2]; 4 mg/ml PEG 200 formulation)?
**A.** four hundred to about one thousand

**Q.** For `CC[C@@]1(O)C(=O)OCc2c1cc1n(c2=O)Cc2cc3c(CN(C)C)c(O)ccc3nc2-1` [topotecan], which “effect of addition” value [5] is on record?
**A.** potentiate the anti-proliferative activity of rapamycin

**Q.** What about the “cytotoxicity in cell viability assay” value ([6]; at concentrations up to one micromolar) of the same compound?
**A.** non-cytotoxic

**Q.** Which IC50 ([7]; human coronary artery smooth muscle cell proliferation, read-out: anti-proliferative IC50) does the source give for `CC(/C=C/C(=O)NO)=C\[C@@H](C)C(=O)c1ccc(N(C)C)cc1` [trichostatin A] here?
**A.** ~6 nM

**Q.** What about the “inhibition of human coronary artery smooth muscle cell proliferation” value ([7]; in vitro cell culture) of the same compound?
**A.** completely inhibit

**Q.** And the “anti-proliferative IC50” value (tumor cell lines)?
**A.** low nM range
